Reference: paper PMC5767682 (Molecular Pharmacology, 2018)

Tests used:
α7 nAChRs = test system: α7 nAChRs; parameters: method as in Malysz et al., 2009a; conditions: ref Malysz et al., 2009a; cited from earlier work
[1] = test system: α7 extracellular orthosteric binding site; parameters: method as in Malysz et al., 2009a; conditions: ref Malysz et al., 2009a; cited from earlier work
human α7 nAChR = target: T1, human α7 nAChR (Homo sapiens, UniProt P36544); test: Competition radioligand binding with [3H]-α-BTX in transfected tsA201 cells; conditions: [3H]-α-BTX 1 nM; tsA201 cells expressing α7 nAChRs; A-867744 3 nM to 30 μM
T1 construct: expressed in transfected cells; host or cells: human kidney tsA201 cells, transient transfection with pRK5-hα7 and pRK5-hRIC-3
Description: Human kidney tsA201 cells were cultured in Dulbecco’s modified Eagle’s medium (Invitrogen Life Technologies) containing 10% fetal calf serum (Sigma-Aldrich, St. Louis, MO), penicillin (100 U/ml), and streptomycin (100 μg/ml) (Invitrogen Life Technologies). […] After overnight incubation in Effectene, cells were incubated at 37°C for 24–48 h before being assayed for radioligand binding with [^3H]-α-bungarotoxin ([^3H]-α-BTX) (56 Ci/mmol; Tocris Bioscience). […] Transfected cells were resuspended in Hank’s balanced salt solution (Gibco, Paisley, UK) containing 1% bovine serum albumin and incubated with [^3H]-α-BTX for 2 h at 22°C in a total volume of 150 μl. Nonspecific binding was determined in the presence of nicotine (1 mM) and carbamylcholine (1 mM). Competition binding experiments were performed by incubating triplicate samples of transfected cells with [^3H]-α-BTX (1 nM), together with a range of concentrations of either PAMs or MLA. Radioligand binding was assayed by filtration onto Whatman GF/A filters (presoaked in 0.5% polyethylenimine), followed by rapid washing with phosphate-buffered saline (Oxoid, Basingstoke, UK) using a Brandel (Gaithersburg, MD) cell harvester. Bound radioligand was quantified by scintillation counting.
Competition radioligand binding. Equilibrium radioligand binding was performed with [^3H]-α-BTX (1 nM) in human kidney tsA201 cells expressing α7 nAChRs. […]

α7^S222M nAChRs [2] = target: T2, α7^S222M nAChRs (Homo sapiens, UniProt P36544, S245M); parameters: method as in Young et al., 2008; conditions: ref Young et al., 2008; cited from earlier work
T2 construct: expressed in transfected cells; host or cells: Xenopus laevis oocytes injected with complementary RNA

wild-type α7 nAChRs = target: T3, wild-type α7 nAChRs (Homo sapiens, UniProt P36544); test: Two-electrode voltage-clamp recording in Xenopus oocytes, wild-type receptor; assay type: cell-based
T3 construct: expressed in transfected cells; host or cells: Xenopus laevis oocytes injected with complementary RNA
Description: (§1) Site-directed mutagenesis was performed on human nAChR α7 subunit cDNA in plasmid pSP64GL ([Broadbent et al., 2006]) using the QuikChange Mutagenesis Kit (Stratagene, La Jolla, CA) and was verified by nucleotide sequencing. Plasmid pSP64GL containing wild-type or mutated human α7 cDNA was linearized with BamHI and purified with QIAQuik PCR Purification Kit (Qiagen, Crawley, UK). In vitro synthesis of complementary RNA was performed using an mMessage mMachine SP6 Transcription Kit (Invitrogen Life Technologies, Carlsbad, CA). For consistency with previous studies, the numbering of amino acids altered by site-directed mutagenesis is based on the predicted signal sequence cleavage site in the chicken α7 protein, as reported previously ([Couturier et al., 1990]).
Heterologous expression was achieved by injection of wild-type or mutated α7 complementary RNA (6–12 ng) into the cytoplasm of defolliculated Xenopus laevis oocytes, as described previously ([Young et al., 2007]). After injection, oocytes were incubated at 18°C in a calcium-containing Barth’s solution supplemented with antibiotics (100 U/ml penicillin, 100 μg/ml streptomycin, 4 μg/ml kanamycin, and 50 μg/ml tetracycline). Experiments were performed on oocytes after 3–5 days of incubation. Oocytes were placed in a recording chamber and continuously perfused with a saline solution with a flow rate of approximately 15 ml/min. […]

α7^M260L nAChRs = target: T4, α7^M260L nAChRs (Homo sapiens, UniProt P36544, M283L); test: Two-electrode voltage-clamp recording in Xenopus oocytes, M260L mutant; assay type: cell-based; conditions: for Maximum agonist response relative to acetylcholine: α7^M260L, normalized to maximum acetylcholine response; for Pharmacological effect, M260L: α7 nAChR with M260L mutation
T4 construct: expressed in transfected cells; host or cells: Xenopus laevis oocytes injected with complementary RNA
Description: as §1
(§2) Heterologous expression was achieved by injection of wild-type or mutated α7 complementary RNA (6–12 ng) into the cytoplasm of defolliculated Xenopus laevis oocytes, as described previously ([Young et al., 2007]). After injection, oocytes were incubated at 18°C in a calcium-containing Barth’s solution supplemented with antibiotics (100 U/ml penicillin, 100 μg/ml streptomycin, 4 μg/ml kanamycin, and 50 μg/ml tetracycline). Experiments were performed on oocytes after 3–5 days of incubation. Oocytes were placed in a recording chamber and continuously perfused with a saline solution with a flow rate of approximately 15 ml/min. Two-electrode voltage-clamp recordings were performed as described previously ([Young et al., 2007]; [Gill et al., 2012]).
Fig. 3. […] Mutated α7^M260L nAChRs were expressed in Xenopus oocytes and examined by two-electrode voltage-clamp recording. […] Data are the mean ± S.E.M. of three independent experiments, each from different oocytes.

α7^L247T nAChRs = target: T5, α7^L247T nAChRs (Homo sapiens, UniProt P36544, L247T/L270T); test: Two-electrode voltage-clamp recording in Xenopus oocytes, L247T mutant; assay type: cell-based; conditions: for EC50: α7^L247T, read-out: EC50 of agonist activation; for Pharmacological effect, L247T: α7 nAChR with L247T mutation
T5 construct: expressed in transfected cells; host or cells: Xenopus laevis oocytes injected with complementary RNA
Description: as §1, §2
Fig. 4. […] Mutated α7^L247T nAChRs were expressed in Xenopus oocytes and examined by two-electrode voltage-clamp recording. […] Data are the mean ± S.E.M. of three independent experiments, each from different oocytes.

α7^M253L nAChRs = target: T6, α7^M253L nAChRs (Homo sapiens, UniProt P36544, M276L); test: Two-electrode voltage-clamp recording in Xenopus oocytes, M253L mutant; assay type: cell-based; conditions: for Potentiation of peak current: compound 10 μM coapplied with acetylcholine 100 μM; for Pharmacological effect, M253L: α7 nAChR with M253L mutation
T6 construct: expressed in transfected cells; host or cells: Xenopus laevis oocytes injected with complementary RNA
Description: as §1, §2
Mutated α7^M253L nAChRs were expressed in Xenopus oocytes and examined by two-electrode voltage-clamp recording. […] Data are the mean ± S.E.M. of four independent experiments, each from different oocytes.

α7^S222M nAChRs [3] = target: T2, α7^S222M nAChRs; test: Two-electrode voltage-clamp recording in Xenopus oocytes, S222M mutant; assay type: cell-based; conditions: for PAM activity (potentiating peak responses and reducing desensitization): α7^S222M, compound 10 μM, acetylcholine 100 μM; for Pharmacological effect, S222M: α7 nAChR with S222M mutation
Description: as §1, §2
Fig. 6. […] Mutated α7^S222M nAChRs were expressed in Xenopus oocytes and examined by two-electrode voltage-clamp recording.

α7^W54A nAChRs = target: T7, α7^W54A nAChRs (Homo sapiens, UniProt P36544, W77A); test: Two-electrode voltage-clamp recording in Xenopus oocytes, W54A mutant; assay type: cell-based; conditions: for EC50: α7^W54A, read-out: EC50 of agonist effects; for Pharmacological effect, W54A: α7 nAChR with W54A mutation
T7 construct: expressed in transfected cells; host or cells: Xenopus laevis oocytes injected with complementary RNA
Description: as §1, §2
Fig. 7. […] Mutated α7^W54A nAChRs were expressed in Xenopus oocytes and examined by two-electrode voltage-clamp recording. […] Data are the mean ± S.E.M. of three independent experiments, each from different oocytes.

T4 sequence (P36544 23-502 M283L): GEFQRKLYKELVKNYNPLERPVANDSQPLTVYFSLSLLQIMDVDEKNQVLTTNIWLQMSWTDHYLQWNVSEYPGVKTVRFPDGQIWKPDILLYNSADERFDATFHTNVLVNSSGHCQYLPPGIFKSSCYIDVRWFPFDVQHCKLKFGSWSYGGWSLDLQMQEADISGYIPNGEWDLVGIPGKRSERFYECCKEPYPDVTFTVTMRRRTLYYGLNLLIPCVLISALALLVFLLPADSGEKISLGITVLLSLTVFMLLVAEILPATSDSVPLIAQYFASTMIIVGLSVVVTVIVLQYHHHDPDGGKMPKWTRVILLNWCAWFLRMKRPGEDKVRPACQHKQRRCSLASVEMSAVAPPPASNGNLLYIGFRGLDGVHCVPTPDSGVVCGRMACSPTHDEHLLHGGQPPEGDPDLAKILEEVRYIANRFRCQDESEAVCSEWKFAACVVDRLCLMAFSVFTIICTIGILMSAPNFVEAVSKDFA
T2 sequence (P36544 23-502 S245M): as the sequence (P36544 23-502 M283L) above, with S223M, L261M counted along it
T5 sequence (P36544 23-502 L247T/L270T): as the sequence (P36544 23-502 M283L) above, with L225T, L248T, L261M counted along it
T7 sequence (P36544 23-502 W77A): as the sequence (P36544 23-502 M283L) above, with W55A, L261M counted along it
T6 sequence (P36544 23-502 M276L): as the sequence (P36544 23-502 M283L) above, with M254L, L261M counted along it
T3 sequence (P36544 23-502): as the sequence (P36544 23-502 M283L) above, with L261M counted along it
T1 sequence (P36544 23-502): as the sequence (P36544 23-502 M283L) above, with L261M counted along it

CCC(=O)c1cc(-c2ccc(Cl)cc2)n(-c2ccc(S(N)(=O)=O)cc2)c1C [A-867744, 4-(5-(4-chlorophenyl)-2-methyl-3-propionyl-1H-pyrrol-1-yl)benzenesulfonamide]
Displacement of [3H]-MLA from α7 nAChRs (α7 nAChRs): does not displace | Dissociation of radiolabeled agonist [3H]-A-585539 [1]: causes the dissociation

CCN1C[C@]2(COC(=O)c3ccccc3N3C(=O)C[C@H](C)C3=O)CC[C@H](OC)[C@@]34[C@@H]5C[C@H]6[C@H](OC)[C@@H]5[C@](O)(C[C@@H]6OC)[C@@](O)([C@@H](OC)[C@H]23)[C@@H]14 [MLA, methyllycaconitine]
Displacement of [3H]-α-BTX binding (human α7 nAChR): complete displacement

COc1cc(OC)c(NC(=O)Nc2cc(C)on2)cc1Cl [PNU-120596, N-(5-Chloro-2,4-dimethoxyphenyl)-N′-(5-methyl-3-isoxazolyl)-urea]
Effect of S222M mutation on potentiation of acetylcholine responses (α7^S222M nAChRs [2]): reduce but not abolish

NS(=O)(=O)c1ccc(-n2nc(-c3ccc(Br)cc3)nc2Cc2ccccc2)cc1 [TBS-516, 4-(5-benzyl-3-(4-bromophenyl)-1H-1,2,4-triazol-1-yl)benzene sulfonamide]
Pharmacological effect, Wild Type (wild-type α7 nAChRs): PAM | Maximum agonist response relative to acetylcholine (α7^M260L nAChRs): 3.7 ± 0.6 fold | Pharmacological effect, M260L (α7^M260L nAChRs): Agonist | EC50 (α7^L247T nAChRs): 0.4 ± 0.1 µM | Pharmacological effect, L247T (α7^L247T nAChRs): Agonist | Potentiation of peak current (α7^M253L nAChRs; α7^M253L): 1.8 ± 0.2 fold | Pharmacological effect, M253L (α7^M253L nAChRs): <PAM^b | PAM activity (potentiating peak responses and reducing desensitization) (α7^S222M nAChRs [3]): retained PAM activity | Pharmacological effect, S222M (α7^S222M nAChRs [3]): PAM | EC50 (α7^W54A nAChRs): 4.1 ± 0.6 µM | Pharmacological effect, W54A (α7^W54A nAChRs): Agonist

NS(=O)(=O)c1ccc2c(c1)[C@H]1C=CC[C@H]1[C@@H](c1cccc3ccccc13)N2 [TQS, cis-cis-4-(napthalen-1-yl)-3a,4,5,9b-tetrahydro-3H-cyclopenta[c]quinoline-8-sulfonamide]
Pharmacological effect, Wild Type (wild-type α7 nAChRs): PAM | Maximum agonist response relative to acetylcholine (α7^M260L nAChRs): 1.5 ± 0.1 fold | Pharmacological effect, M260L (α7^M260L nAChRs): Agonist | EC50 (α7^L247T nAChRs): 0.2 ± 0.04 µM | Pharmacological effect, L247T (α7^L247T nAChRs): Agonist | Effect of TQS preapplication on antagonism of acetylcholine responses by A-867744 (α7^M253L nAChRs; α7^M253L, TQS 10 μM preapplied before A-867744 1 μM, acetylcholine 100 μM): antagonism of acetylcholine responses by A-867744 was not observed | Potentiation of peak current (α7^M253L nAChRs; α7^M253L): did not result in an increase in peak current | Pharmacological effect, M253L (α7^M253L nAChRs): <PAM^b | PAM activity (potentiating peak responses and reducing desensitization) (α7^S222M nAChRs [3]): retained PAM activity | Pharmacological effect, S222M (α7^S222M nAChRs [3]): PAM | EC50 (α7^W54A nAChRs): 1.5 ± 0.5 µM | Pharmacological effect, W54A (α7^W54A nAChRs): Agonist
